Reference: US20240238281A1, “PIPERAZINE DERIVATIVES AND APPLICATION THEREOF” (priority 2021, published 2024)
Like-named read-outs stand apart in the source and are kept apart here.

Tests used:
MC1R = molecular target: T1, MC1R (Homo sapiens, UniProt Q01726); assay: In vitro activity of MCR receptors, intracellular cAMP signal (HEK293T/MCR cell line), MC1R; type: cell-based; conditions: cAMP, HEK293T/MCR cell line; read-out: MC1R EC50
T1 construct: expressed in transfected cells
Description: Test purpose: to evaluate the agonistic effect of the compound on MCRs by detecting intracellular cAMP signal changes.
Cells were resuspended with 1×PBS+500 μM IBMX. 10 μL of the cell suspension was added into a 384-well plate to be tested, and the cell concentration was adjusted to 1×10^4 cells per well for later use. A pre-prepared solution of the compound to be tested was added, and dimethyl sulfoxide of the same volume was added to blank control wells. The test plate was centrifuged at 300 rpm for 1 minute, incubated at 37° C. for 30 minutes, and added with 5 μL of cAMP-d2 and 5 μL of a CAMP-cry antibody detection reagent. The test plate was centrifuged at 300 rpm for 1 minute, and incubated at room temperature for 60 minutes.

[1] = Drug concentration in brain tissues of rats, intravenous injection; type: in vivo, SD rats; conditions: rat, i.v. 2 mg/kg
Description: 3.1 6 healthy SD rats of 6-9 weeks old were selected, and the test compound was administered via intravenous injection. Two animals were randomly selected at 0.5 hour, 2 hours and 4 hours after administration respectively, and plasma and brain tissue samples were collected, and the quantitative assay of all biological samples was performed using the LC-MS/MS method.

T1 sequence (Q01726 whole entry): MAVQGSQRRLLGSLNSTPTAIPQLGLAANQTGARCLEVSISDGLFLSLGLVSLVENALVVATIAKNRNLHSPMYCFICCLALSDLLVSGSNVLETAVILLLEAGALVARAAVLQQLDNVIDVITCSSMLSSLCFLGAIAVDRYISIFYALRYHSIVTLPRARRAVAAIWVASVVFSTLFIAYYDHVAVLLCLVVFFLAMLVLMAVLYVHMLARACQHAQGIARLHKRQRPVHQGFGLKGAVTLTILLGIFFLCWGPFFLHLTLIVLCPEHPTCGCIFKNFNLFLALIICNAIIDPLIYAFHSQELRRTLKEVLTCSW

- EC50 (MC1R): 459 nM
- concentration at 0.5 h ([1]; SD, brain, iv, 0.5 hour, read-out: Brain drug concentration): 2830 nM
- concentration at 2 h ([1]; SD, brain, iv, 2 hours, read-out: Brain drug concentration): 965 nM
- Kp at 0.5 h ([1]; SD, brain/plasma, iv, 0.5 hour, read-out: Brain-to-blood ratio): 7.8
- Kp at 2 h ([1]; SD, brain/plasma, iv, 2 hours, read-out: Brain-to-blood ratio): 6.9
- concentration at 0.5 h ([1]; SD, plasma, iv, 0.5 hour, read-out: Plasma drug concentration): 362 nM
- concentration at 2 h ([1]; SD, plasma, iv, 2 hours, read-out: Plasma drug concentration): 141 nM
- Brain drug concentration (nmol/L) ([1]; 4 hours): BQL
- Plasma drug concentration (nmol/L) ([1]; 4 hours): BQL
SMILES: C[C@@H]1CN(C(=O)[C@@H]2CN(C3CCOCC3)C[C@H]2c2ccc(F)cc2F)C[C@H](C)N1c1ccc(F)cc1 (single isomer, unassigned) [Compound 7]
